Measured values as given in patent US8815946B2, “Inhibition of proliferation and fibrotic response of activated corneal stromal cells” (University of Pittsburgh—of the Commonwealth System of …, priority 2008, dated 2014).

Test system: cellular fibronectin
Assay: Western blot analyses of cellular fibronectin, human corneal stromal cells
Type: cell-based
Conditions: TGF-β1, two and four days
Procedure: FIG. 7. Western blot analyses of cellular fibronectin. Human corneal stromal cells in P2 growing in DMEM/F12 with 10% FBS were subcultured into 60 mm tissue culture dishes. After 24 hrs of incubation, the media were replaced with DMEM/F12 medium containing 1% FBS and TGF-β1 with or without (control) different EP concentrations as indicated and incubated for two and four days (media were changed every 24 hours). The cells were extracted in RIPA buffer and the extracts containing 5 μg of total proteins were loaded per lane for Western blot analysis.
Keratocytes or fibroblasts grown under different culture conditions were extracted in RIPA buffer (9.1 mM dibasic sodium phosphate, 1.7 mM monobasic sodium phosphate, 150 mM NaCl, pH, 7.4, 1% Nonidet P-40, 0.5% sodium deoxycholate, 0.1% SDS, 0.03 TIU/mL aprotinin, 1 mM sodium orthovanadate, and 100 μg/mL phenylmethylsulfonyl fluoride (PMSF)). Aliquots of cell extracts containing 50 or 100 μg protein were subjected to SDS-PAGE. […] Immunoreactive bands were detected using chemiluminescence Western chemiluminescence reagents. […]

CCOC(=O)C(C)=O [ethyl pyruvate]
downregulation of fibronectin by Western blot of cell extracts (including the matrix): confirmed
